Source: ChEMBL document CHEMBL1148405, “Prediction of ligand binding affinity and orientation of xenoestrogens to the estrogen receptor by molecular dynamics simulations and the linear interaction energy method” (J Med Chem, 2004)

target: Estrogen receptor (Ovis aries, UniProt P49885+Q9TU15); test: Displacement of [3H]-estradiol (E2) from sheep uterine estrogen receptor

Row | SMILES | Kd [M l-1]
1 | Brc1ccccc1-c1ccccc1Br | 0.00016
2 | CC(=O)C1CCC2C3CCC4=CC(O)CCC4(C)C3CCC12C (stereo not given) | > 0.0003
3 | CCC1Cc2cc(O)ccc2C2=C1c1ccc(O)cc1CC2CC (stereo not given) | 3e-9
4 | Oc1ccc2c(cc3ccc4cccc5ccc2c3c45)c1O | 0.000014
5 | Oc1ccc2c(ccc3c4ccccc4ccc23)c1O | 8.8e-7
6 | Oc1ccc2ccc3c4ccccc4ccc3c2c1 | 4e-6
7 | Oc1ccc2ccc3c4ccccc4cc4ccc1c2c43 | 1.1e-6
8 | Brc1ccc(-c2ccc(Br)cc2)cc1 | > 0.0003
9 | Oc1ccc(C2COc3cc(O)c(O)cc3C2)cc1 (stereo not given) | 0.000011
10 | O=c1c(-c2ccc(O)cc2)coc2cc(O)ccc12 [DAIDZEIN] | 5.9e-6
